Data as given in patent US20210002712A1, “PHOSPHATIDIC ACID SENSOR” (NATIONAL UNIVERSITY CORPORATION CHIBA UNIVERSITY, priority 2019, published 2021).

Assays:
[1] = Liposome cosedimentation assay, PI(4,5)P2 liposomes; format: binding; conditions: protein 0.1 μM; liposomes 20 μM
Method: (§1) FIG. 7. The purified SUMO-tagged-α-Syn protein (0.1 μM) was incubated with 18:1/18:1-PA, 18:1/18:1-PS, 18:1/18:1-PI(4,5)P2, 18:1/18:1-PE and d18:1/18:1-C1P liposomes (20 μM) and then separated by ultracentrifugation. SDS-PAGE (15%) analysis was performed and separated proteins were detected with silver staining. The position of α-Syn-N is indicated with an arrow head.
(§2) FIG. 8. The amounts of protein in the precipitant were quantified by densitometry using ImageJ software. The PA binding activity of α-Syn-N was set to 100%. Values are presented as the mean±S.D. of three independent experiments. ***P<0.005 versus 18:1/18:1-PA liposome.
(§3) The following lipid mixtures were used: the control liposome: Chol (50 mol %) and 16:0/18:1-PC (50 mol %); and the PA liposome: Chol (50 mol %), 16:0/18:1-PC (35 mol %) and each PA species (15 mol %). The combined dried lipid mixture was resuspended in HEPES buffer. Then, the lipid mixture was vortexed for 1 min. Liposome formation was induced by sonication at 75° C. The purified SUMO-tagged α-Syn and its deletion mutants (2.5 μM) were dissolved in HEPES buffer and incubated with the control or PA-containing liposomes at room temperature for 1 h. […] The supernatant and pellet were analyzed by SDS-PAGE followed by Coomassie Brilliant Blue and silver staining. Quantitative densitometry was performed using ImageJ software. […]

[2] = Liposome cosedimentation assay, PS liposomes; format: binding; conditions: protein 0.1 μM; liposomes 20 μM
Method: as §1, §2, §3

[3] = Lipid overlay assay, other lipids; format: binding; conditions: GST-tagged protein 20 nM; 100 pmol lipids
Text: (§4) FIG. 9. Equimolar amounts (100 pmol) of various lipids were spotted onto nitrocellulose membranes as indicated. Acyl chains of these glycerolipids and sphingolipids are C16:0 (Echelon Biosciences).
(§5) FIGS. 10 and 12. The blots were scanned and quantified using ImageJ software. The PA binding activity (spot intensity) of α-Syn-N was set to 100%. Values are presented as the mean±S.D. of three independent experiments. ***P<0.005 versus PA.
(§6) FIG. 27. Equimolar amounts (500 pmol) of 18:1/18:1-PA, 18:1/18:1-PC, 18:1/18:1-PE, 18:1/18:1-PG), 18:1/18:1-PS, 18:1/18:1-PI and 18:1/18:1-PI(4,5)P2 were spotted onto nitrocellulose membranes as indicated and incubated with purified GST-tagged-α-Syn-N(20 nM). Lipid-bound proteins were detected by an anti-GST antibody.
(§7) FIG. 28. The blots were scanned and quantified using ImageJ software. The PA binding activity (spot intensity) of α-Syn-N was set to 100%. Values are presented as the mean±S.D. of three independent experiments. ***P<0.005 versus 18:1/18:1-PA.
(§8) Three hundred picomoles of the indicated lipids were spotted onto a nitrocellulose membrane. Membrane Lipid Strip was also used. The membranes were subjected to blocking with 1% skim milk in Tris-buffered saline, pH 7.4, for 1 h at room temperature. […] Quantitative densitometry was performed using ImageJ software.

[4] = test system: COS-7 cells; experiment: Subcellular localization of the sensor without PA-generating enzyme in COS-7 cells; format: cell-based; conditions: absence of PA-generating enzyme
Method: (§9) FIGS. 13 to 16. […] After 24 h of transfection, the cells were fixed and imaged. Representative data from three independent experiments are shown. Scale bars, 20 μm.
(§10) FIG. 29. Either EGFP alone or EGFP-DGKβ was coexpressed with the DsRed monomer alone, DsRed monomer-Spo20p-PABD or DsRed monomer-PDE4A1-PABD in COS-7 cells as indicated. After 24 h of transfection, the cells were fixed and imaged. Representative data from three independent experiments are shown. Scale bars, 20 μm.
(§11) COS-7 cells were maintained in Dulbecco's modified Eagle's medium supplemented with 10% fetal bovine serum, 100 units/ml penicillin, and 100 μg/ml streptomycin at 37° C. in an atmosphere containing 5% CO2. Cells were transiently transfected using PolyFect reagent as described by the manufacturer.
(§12) The cells were then fixed in 4% paraformaldehyde. The coverslips were mounted using Vectashield. […] Images were acquired using FV-10 ASW software.

[5] = Liposome cosedimentation assay, PE and C1P liposomes; format: binding; conditions: protein 0.1 μM; liposomes 20 μM
Method: as §1, §2, §3

[6] = test system: PIP5K1A; experiment: Colocalization with EGFP-PIP5K1A in COS-7 cells; format: cell-based
Method: as §10, with “23.” for “29.”, “EGFP-PIP5K1A” for “EGFP-DGKβ”, “with either” for “with”, “monomer α-Syn-N” for “monomer-Spo20p-PABD”, “monomer PLCδ1-PHD” for “monomer-PDE4A1-PABD”
FIG. 24. The localization of EGFP-PIP5K1A, DsRed monomer-α-Syn-N and DsRed monomer-PLCδ1-PHD was quantified using ImageJ software.
as §11, §12

[7] = Lipid overlay assay, PA spot; format: binding; conditions: GST-tagged protein 20 nM; 16:0/16:0-glycerolipids, 100 pmol
Text: as §4, §5, §6, §7, §8

[8] = Lipid overlay assay, PA versus LPA and C1P; format: binding; conditions: GST-tagged protein 20 nM; 300 pmol lipids
Method: FIG. 11. Equimolar amounts (300 pmol) of 18:1/18:1-PA, 18:1-LPA, and d18:1/18:1-C1P were spotted onto nitrocellulose membranes as indicated. The membranes were incubated with purified GST-tagged-α-Syn-N(20 nM). Lipid-bound proteins were detected by an anti-GST antibody.
as §5
Three hundred picomoles of the indicated lipids were spotted onto a nitrocellulose membrane. Membrane Lipid Strip was also used. The membranes were subjected to blocking with 1% skim milk in Tris-buffered saline, pH 7.4, for 1 h at room temperature. After blocking, 10 ml of 3% bovine serum albumin in Tris-buffered saline, pH 7.4, containing purified GST alone or GST-α-Syn-N (final concentration, 20 nM) was added to the membranes. The membranes were then incubated for 1 h at room temperature. Next, the membranes were incubated with an anti-GST antibody, followed by incubation with a peroxidase-conjugated goat anti-rabbit IgG antibody. Finally, lipid-bound proteins were visualized using an ECL Western blotting detection system. Quantitative densitometry was performed using ImageJ software.

[9] = Liposome cosedimentation assay, other PA molecular species; format: binding; conditions: protein 2.5 μM; PA 150 μM
Method: (§13) FIG. 3. The purified SUMO-tagged-α-Syn-N protein (2.5 μM) was incubated with control (PC and Chol alone), 16:0/16:0-PA, 16:0/18:1-PA, 18:1/18:1-PA, or 18:0/18:0-PA liposomes (PA: 150 μM) and then separated by ultracentrifugation. SDS-PAGE (15%) was performed and separated proteins were stained with Coomassie Brilliant Blue. The position of α-Syn-N is indicated with an arrow head.
(§14) FIG. 4. The amounts of protein in the supernatant (S) and precipitant (P) were quantified by densitometry using ImageJ software. Binding activity was calculated as the percentage of the precipitate band intensity compared to the total band intensities. Values are presented as the mean±S.D. of three independent experiments. #P<0.05, ##P<0.01, ###P<0.005 versus the 18:1/18:1-PA-liposome, *P<0.05, ***P<0.005 versus the control liposome.
as §3, with “C.” for “C. The purified SUMO-tagged α-Syn and its deletion mutants (2.5 μM) were dissolved in HEPES buffer and incubated with the control or PA-containing liposomes at room temperature for 1 h.”

[10] = test system: EGFP-PLD2; experiment: Colocalization with EGFP-PLD2 in COS-7 cells; format: cell-based
Method: FIGS. 21 and 22. […] Representative data from three independent experiments are shown. Scale bars, 20 μm.
as §11, §12

[11] = Liposome cosedimentation assay, 18:1/18:1-PA liposomes; format: binding; conditions: for PA-binding activity (18:1/18:1-PA liposomes): 6×His-SUMO-tagged protein 2.5 μM, PA 150 μM
Method: FIG. 1. A schematic architecture of α-Syn and its deletion mutants. FIG. 2. The purified SUMO-tagged-α-Syn and its deletion mutant protein (2.5 μM) were incubated with 18:1/18:1-PA or 18:1/18:1-PS liposomes (PA or […]: 150 μM) and then separated by ultracentrifugation. SDS-PAGE (15%) was performed and separated proteins were stained with Coomassie Brilliant Blue. The positions of α-Syn and its mutants are indicated with arrow heads. The amounts of protein in the supernatant (S) and precipitant (P) were quantified by densitometry using ImageJ software. Binding activity was calculated as the percentage of the precipitate band intensity compared to the total band intensities. Values are presented as the mean±S.D. of four independent experiments. **P<0.01 versus the 18:1/18:1-PS liposome.
as §13, §14
FIG. 5. The purified SUMO-tagged-α-Syn protein (0.1 μM) was incubated with 18:1/18:1-PA liposomes of the indicated concentrations (0-20 μM) and then separated by ultracentrifugation. SDS-PAGE (15%) was performed and separated proteins were detected with silver staining. The position of α-Syn-N is indicated with an arrow head.
FIG. 6. The amounts of protein in the precipitant were quantified by densitometry using ImageJ software. Binding activity was calculated as the percentage of the precipitate band intensity compared to the total band intensities (Input). Values are presented as the mean±S.D. of four independent experiments. The Kd was determined using GraphPad Prism 8 (Dissociation-One phase exponential decay).
as §1, §2
The following lipid mixtures were used: the control liposome: Chol (50 mol %) and 16:0/18:1-PC (50 mol %); and the PA liposome: Chol (50 mol %), 16:0/18:1-PC (35 mol %) and each PA species (15 mol %). The combined dried lipid mixture was resuspended in HEPES buffer. Then, the lipid mixture was vortexed for 1 min. Liposome formation was induced by sonication at 75° C. The purified SUMO-tagged α-Syn and its deletion mutants (2.5 μM) were dissolved in HEPES buffer and incubated with the control or PA-containing liposomes at room temperature for 1 h. Then, the samples were centrifuged at 200,000 g at 4° C. for 1 h. The precipitant was dissolved in HEPES buffer. The supernatant and pellet were analyzed by SDS-PAGE followed by Coomassie Brilliant Blue and silver staining. Quantitative densitometry was performed using ImageJ software. Since the lipid forms a bilayer, half of the actual concentration was considered.

[12] = test system: Myr-AcGFP-DGKζ; experiment: Colocalization with Myr-AcGFP-DGKζ in COS-7 cells; format: cell-based; conditions: trans Golgi network and plasma membrane
Method: FIG. 17. […] After 24 h of transfection, the cells were fixed and imaged. Representative data from three independent experiments are shown. Scale bars, 20 μm.
FIGS. 32 and 33. Either Myr-AcGFP-DGKζ alone or Myr-AcGFP-DGKζ-KD was coexpressed with the DsRed monomer alone or DsRed monomer-Spo20p-PABD in COS-7 cells as indicated. After 24 h of transfection, the cells were fixed and imaged. Representative data from three independent experiments are shown. Scale bars, 20 μm.
as §11, §12

[13] = test system: EGFP-DGKγ; experiment: Colocalization with EGFP-DGKγ in PMA-stimulated COS-7 cells; format: cell-based; conditions: 1 μM PMA 30 min
Method: FIGS. 19 and 20. […] Representative data from three independent experiments are shown. Scale bars, 20 μm. FIG. 20.
as §11, §12

[14] = test system: EGFP-DGKβ; experiment: Colocalization with EGFP-DGKβ in COS-7 cells; format: cell-based; conditions: 24 h after transfection
Method: as §9
FIG. 14. […] FIG. 15. EGFP-DGKβ-WT was coexpressed with DsRed monomer-α-Syn-N in COS-7 cells. […] Representative data from three independent experiments are shown. Scale bars, 20 μm.
as §10, §11, §12

binding to PI(4,5)P2 liposomes [1] | binding to PS liposomes [2] | binding to other lipid spots [3] | binding to PE or C1P liposomes [5] | binding to PA spot [7] | binding of PA relative to LPA and C1P [8] | binding to 16:0/16:0- and 16:0/18:1-PA liposomes [9] | Kd ([11]; protein 0.1 μM, 18:1/18:1-PA liposomes 0-20 μM, read-out: dissociation constant (Kd) for PA (18:1/18:1-PA)) [µM] | binding to 18:1/18:1-PA liposomes compared with other acidic glycerolipids ([11]; protein 0.1 μM, liposomes 20 μM) | Substance | subcellular localization [4] | colocalization with EGFP-PIP5K1A [6] | colocalization with EGFP-PLD2 [10] | PA-binding activity (18:1/18:1-PA liposomes) [11] | colocalization with Myr-AcGFP-DGKζ [12] | colocalization with EGFP-DGKγ at the plasma membrane [13] | colocalization with EGFP-DGKβ [14]
only weak signals were detected | no signals were observed | only weak or no signals were detected | did not substantially interact | most strongly bound | significantly stronger binding | considerably interacted | 6.6 | most strongly bound | α-Syn-N: N-terminal region of mouse α-synuclein (Met1-Lys60), SEQ ID NO: 2; used 6×His-SUMO-, GST- or DsRed monomer-tagged | broad distribution in the cytoplasm and the nucleus | did not codistribute | clearly colocalized | most strongly bound | markedly colocalized | markedly colocalized | clearly colocalized
 |  |  |  |  |  |  |  |  | α-Syn-NAC-C: NAC and C deletion mutant of α-Syn (Glu61-Ala140), 6×His-SUMO-tagged |  |  |  | failed to show substantial PA-binding activity |  |  | 
 |  |  |  |  |  |  |  |  | α-Syn-NAC: non-amyloid-β-component deletion mutant of α-Syn (Glu61-Val95), 6×His-SUMO-tagged |  |  |  | failed to show substantial PA-binding activity |  |  | 
